Literature values, collected in US20250339362A1, “SKINCARE SUPPLEMENTS” (Natals, Inc., priority 2024, published 2025).
Like-named read-outs stand apart in the source and are kept apart here.

Test system: male and female subjects ages 35-64 years
Settings: 120 mg HA capsule orally once per day, Visioscan

## hyaluronic acid [HA]
Week 8
  facial skin smoothness: Statistical significance compared to placebo: No
Week 12
  facial skin smoothness: Statistical significance compared to placebo: statistically significant reduction in smoothness
